Laboratory results from patent publication US20090030207A1, “Polymorphs of Dolasetron base and process for preparation thereof” (priority 2007, published 2009).

Columns and labels:
[1] = Hygroscopicity: water content after 1 week storage at defined relative humidity; type: physicochemical; details: for WATER CONTENT: 1 week, 25 ± 2° C.; for INITIAL water content: before storage
Excerpt: Hygroscopicity Table and Stability Measurements of Form G and J

[2] = type: physicochemical; details: for CRYSTAL FORM: 100% relative humidity, 1 week, 25 ± 2° C.
Excerpt: ARL X-ray powder diffractometer model X'TRA-030, Peltier detector, round standard aluminum sample holder with round zero background quartz plate was used. Scanning parameters: Range: 2-40 deg. 2θ, continuous Scan, Rate: 3 deg./min. The accuracy of peak positions is defined as +/−0.2 degrees due to experimental differences like instrumentations, sample preparations etc. Hygroscopicity Table and Stability Measurements of Form G and J

WATER CONTENT ([1]; 40% relative humidity) | WATER CONTENT ([1]; 60% relative humidity) | WATER CONTENT ([1]; 80% relative humidity) | WATER CONTENT ([1]; 100% relative humidity) | INITIAL water content [1] | crystalline stability (conversion to another polymorph upon storage) [2] | CRYSTAL FORM [2] | Compound
<0.1% | <0.1% | <0.1% | 4.1% | INITIAL water content: 0.1% | stable polymorphic form | B >> G | O=C(O[C@@H]1C[C@@H]2C[C@H]3C[C@H](C1)N2CC3=O)c1c[nH]c2ccccc12 [Form G, Dolasetron base]
<0.1% | <0.1% | 0.2% | 5.5% | INITIAL water content: <0.1% | stable polymorphic form | B >> J | O=C(O[C@@H]1C[C@@H]2C[C@H]3C[C@H](C1)N2CC3=O)c1c[nH]c2ccccc12 [Form J, Dolasetron base]
